Results reported in patent US9834548B2, “Pyridazine compounds as JAK inhibitors” (Portola Pharmaceuticals, Inc., priority 2014, dated 2017).

Key:
Type in all cases: biochemical
[1] = target: JAK2 (Homo sapiens (Human), UniProt O60674); experiment: Purified kinase assay (Z'-LYTE), JAK2; details: Table 1; read-out: JAK2 IC50
Description: (§1) JAK and TYK2 tyrosine phosphorylation activity is measured using the Z′-LYTE™ Technology developed by Invitrogen Corporation (Carlsbad, Calif.). For JAK1, JAK2 and JAK3 the Z′-LYTE™ Kinase Assay Kit-Tyr6 Peptide (part number PV4122) was used. For TYK2 the Z′-LYTE™ Kinase Assay Kit-Tyr6 Peptide (part number PV3192) was used. The Z′-LYTE™ biochemical assay employs a fluorescence resonance energy transfer (FRET) coupled-enzyme format and is based on the differential sensitivity of phosphorylated and non-phosphorylated peptides to proteolytic cleavage. The assay uses a synthetic peptide substrate that is labeled with a donor fluorophore (coumarin) and an acceptor fluorophore (fluorescein) that make up a FRET pair. In the primary reaction (the Kinase Reaction), the kinase transfers the γ-phosphate of ATP to a single tyrosine residue on the substrate, while the presence of a kinase inhibitor in the primary reaction suppresses phosphorylation. In the secondary reaction (the Development Reaction), a site-specific protease (the Development Reagent) is added. The development buffer quenches the Kinase Reaction, while the protease recognizes and cleaves non-phosphorylated Z′-LYTE™ peptide substrate. Cleavage disrupts FRET between the donor and acceptor fluorophores on the non-phosphorylated substrate, while uncleaved, phosphorylated substrate maintains FRET.
(§2) To test the ability of candidate molecules to inhibit JAK tyrosine phosphorylation activity, molecules are reconstituted in 100% DMSO and serially diluted 1:10 in polypropylene v-bottom microtiter plates. The candidate molecules are then diluted 1:25 into kinase buffer and 2.5 μl transferred into duplicate wells of a 384 well low volume black microtiter assay plate (Corning, USA). The final DMSO concentration in the assay is 1%. The kinase reaction contains 2.5 μl of a candidate molecule, 5 μl of catalytic domain recombinant Kinase enzyme+Tyr peptide substrate (Invitrogen, CA) and ATP (Invitrogen, CA). The kinase reaction is allowed to proceed for 1 hour at room temperature. The protease reaction is initiated by the addition of Development Reagent (Invitrogen, CA). After 1 hour incubation at room temperature the fluorescence is measured using a FlexStation plate reader (Molecular Devices, Sunnyvale, Calif.). The reader settings used are as follows: Fluorescence mode, endpoint, top read, excitation 400 nm, emission 445 nm and 520 nm, Auto Cutoff 435 nm and 515 nm, PMT sensitivity high, 6 reads per well Inhibition of JAK activity is calculated as the percent phosphorylation of substrate in the presence of inhibitor compared to the percent phosphorylation of substrate in the absence of inhibitor. IC50's were derived using Xlfit 4.3 (IDBS, UK), 4 parameter logistic model 205: Y=(A+((B−A)/(1+((C/x)^D)))).

[2] = target: JAK1 (Homo sapiens (Human), UniProt P23458); experiment: Purified kinase assay (Z'-LYTE), JAK1; details: Table 1; read-out: JAK1 IC50
JAK1, sequence (P23458 875-1153): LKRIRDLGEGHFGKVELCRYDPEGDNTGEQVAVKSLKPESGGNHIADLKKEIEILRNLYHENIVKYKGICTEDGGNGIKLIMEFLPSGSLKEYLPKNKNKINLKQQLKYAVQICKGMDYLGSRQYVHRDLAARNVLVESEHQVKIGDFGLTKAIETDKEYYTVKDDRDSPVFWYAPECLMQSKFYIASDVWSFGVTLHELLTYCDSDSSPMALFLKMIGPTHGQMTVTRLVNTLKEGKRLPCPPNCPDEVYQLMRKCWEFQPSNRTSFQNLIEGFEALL
Description: as §1, §2

[3] = target: TYK2 (Homo sapiens (Human), UniProt P29597); experiment: Purified kinase assay (Z'-LYTE), TYK2; details: Table 1; read-out: Tyk2 IC50
TYK2, sequence (P29597 897-1176): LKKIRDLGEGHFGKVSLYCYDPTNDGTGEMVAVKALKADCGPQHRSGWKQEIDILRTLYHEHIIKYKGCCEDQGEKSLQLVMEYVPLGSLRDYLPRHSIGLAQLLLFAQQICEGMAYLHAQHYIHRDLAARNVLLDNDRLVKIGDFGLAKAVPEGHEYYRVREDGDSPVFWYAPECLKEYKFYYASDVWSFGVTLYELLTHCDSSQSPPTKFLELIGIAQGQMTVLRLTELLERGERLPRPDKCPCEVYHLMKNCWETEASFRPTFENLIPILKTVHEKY
Description: as §1, §2

[4] = target: JAK3 (Homo sapiens (Human), UniProt P52333); experiment: Purified kinase assay (Z'-LYTE), JAK3; details: Table 1; read-out: JAK3 IC50
JAK3, sequence (P52333 822-1111): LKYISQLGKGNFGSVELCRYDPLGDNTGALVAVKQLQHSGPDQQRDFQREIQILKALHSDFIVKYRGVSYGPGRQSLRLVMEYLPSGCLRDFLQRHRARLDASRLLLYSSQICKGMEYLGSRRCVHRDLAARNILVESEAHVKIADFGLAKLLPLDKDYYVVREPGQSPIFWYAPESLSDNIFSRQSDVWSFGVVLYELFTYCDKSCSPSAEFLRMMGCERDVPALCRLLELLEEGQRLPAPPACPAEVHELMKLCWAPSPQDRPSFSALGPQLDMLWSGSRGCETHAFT
Description: as §1, §2

JAK2, sequence (O60674 849-1124): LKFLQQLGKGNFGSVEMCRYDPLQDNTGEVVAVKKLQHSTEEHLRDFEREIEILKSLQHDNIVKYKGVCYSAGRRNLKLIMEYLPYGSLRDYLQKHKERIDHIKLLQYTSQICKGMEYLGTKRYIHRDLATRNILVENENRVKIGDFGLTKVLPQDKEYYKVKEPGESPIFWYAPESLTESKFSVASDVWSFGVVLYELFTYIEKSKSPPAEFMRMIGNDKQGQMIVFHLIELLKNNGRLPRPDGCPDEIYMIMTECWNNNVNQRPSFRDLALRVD

IC50 [1] [nM] | IC50 [2] [nM] | IC50 [3] [nM] | IC50 [4] [nM] | SMILES
10 to 100 | 100 to 1000 | 100 to 1000 | 1 to 10 | NC(=O)c1nnc(Nc2ccc(N3CCNCC3)cc2)cc1NCc1cccc2ccsc12 [Compound 99]
100 to 1000 | > 1000 |  | 10 to 100 | CC(=O)N1CCC(Cn2cc(Nc3cc(NCc4cccc(F)c4)c(C(N)=O)nn3)cn2)CC1 [Compound 127]
> 1000 | > 1000 |  | 10 to 100 | CC(=O)N1CCN(c2ccc(Nc3cc(NCc4cccc(-c5ccncc5)c4)c(C(N)=O)nn3)cc2)CC1 [Compound 69]
100 to 1000 | > 1000 |  | 10 to 100 | CC(=O)N1CCN(C(=O)c2ccc(Nc3cc(NCc4cccc(F)c4)c(C(N)=O)nn3)cc2)CC1 [Compound 81]
10 to 100 | 10 to 100 |  | 10 to 100 | CC(=O)N1CCN(c2ccc(Nc3cc(NC4CCN(c5ccc(C#N)cn5)CC4)c(C(N)=O)nn3)cc2)CC1 [Compound 92]
100 to 1000 | 100 to 1000 |  | 10 to 100 | C[S+]([O-])Cc1ccc(Nc2cc(NCc3cccc(F)c3)c(C(N)=O)nn2)cc1 (stereo not shown) [Compound 105]
100 to 1000 | 100 to 1000 |  | 1 to 10 | CS(=O)(=O)Cc1ccc(Nc2cc(NCc3cccc4ccsc34)c(C(N)=O)nn2)cc1 [Compound 100]
100 to 1000 | > 1000 |  | 10 to 100 | CC(C)(c1ccc(Nc2cc(NCc3cccc(F)c3)c(C(N)=O)nn2)cc1)S(C)(=O)=O [Compound 95]
10 to 100 | 100 to 1000 |  | 1 to 10 | NC(=O)c1nnc(Nc2ccc(C(=O)N3CCCC3)cn2)cc1NCc1cccc(F)c1 [Compound 73]
100 to 1000 | > 1000 |  | 10 to 100 | CC(=O)N1CCN(c2ccc(Nc3cc(NCc4cccc(-c5cccnc5)c4)c(C(N)=O)nn3)cc2)CC1 [Compound 70]
100 to 1000 | > 1000 |  | 1 to 10 | NC(=O)c1nnc(Nc2ccc(C(=O)N3CCCC3)cc2)cc1NCc1cccc(F)c1F [Compound 83]
100 to 1000 | > 1000 |  | 100 to 1000 | CC(=O)N(C)c1ccc(Nc2cc(NCc3cccc(F)c3)c(C(N)=O)nn2)cc1 [Compound 101]
100 to 1000 | 100 to 1000 |  | 1 to 10 | CS(=O)(=O)Cc1ccc(Nc2cc(NCc3cc(F)ccc3F)c(C(N)=O)nn2)cc1 [Compound 88]
100 to 1000 | 100 to 1000 |  | 10 to 100 | CC(c1ccc(Nc2cc(NCc3cccc(F)c3)c(C(N)=O)nn2)cc1)S(C)(=O)=O (stereo not shown) [Compound 96]
10 to 100 | 100 to 1000 |  | 1 to 10 | CCC(=O)N1CCC(Cn2cc(Nc3cc(NCc4cccc5ccsc45)c(C(N)=O)nn3)cn2)CC1 [Compound 128]
> 1000 | > 1000 |  | 10 to 100 | NC(=O)c1nnc(Nc2ncc(C(=O)N3CCOCC3)s2)cc1NCc1cccc(F)c1 [Compound 77]
10 to 100 | 100 to 1000 |  | 1 to 10 | CC(C)n1cc(Nc2cc(NCc3cccc4ccsc34)c(C(N)=O)nn2)cn1 [Compound 112]
100 to 1000 | > 1000 |  | 10 to 100 | CS(=O)(=O)CCc1ccc(Nc2cc(NCc3cccc(F)c3)c(C(N)=O)nn2)cc1 [Compound 108]
100 to 1000 | > 1000 |  | 10 to 100 | NC(=O)c1nnc(Nc2ccc(C(=O)N3CCOCC3)cc2)cc1NCc1cccc(F)c1 [Compound 80]
100 to 1000 | > 1000 |  | 10 to 100 | NC(=O)c1nnc(Nc2cnn(C3CCCC3)c2)cc1NCc1cccc(F)c1F [Compound 116]
10 to 100 | 10 to 100 |  | 1 to 10 | CCC(=O)N1CCN(c2ccc(Nc3cc(NCc4cccc5[nH]ccc45)c(C(N)=O)nn3)cc2)CC1 [Compound 110]
1 to 10 | 1 to 10 |  | 1 to 10 | N#Cc1ccc(N2CCC(Nc3cc(Nc4cnccn4)nnc3C(N)=O)CC2)nc1 [Compound 97]
10 to 100 | 100 to 1000 |  | 10 to 100 | CC(=O)N1CCN(c2ccc(Nc3cc(N[C@H](C)C(C)C)c(C(N)=O)nn3)cc2)CC1 [Compound 75]

Continued, compound first:

SMILES | IC50 [1] [nM] | IC50 [2] [nM] | IC50 [3] [nM] | IC50 [4] [nM]
NC(=O)c1nnc(Nc2cccc(OCCN3CCCC3)c2)cc1NCc1cccc(F)c1 [Compound 56] | 100 to 1000 | > 1000 | > 1000 | 10 to 100
CC(=O)N1CCN(c2ccc(Nc3cc(NCc4cccs4)c(C(N)=O)nn3)cc2)CC1 [Compound 21] | 100 to 1000 | > 1000 | 100 to 1000 | 10 to 100
Cn1cc(Nc2cc(NCc3cccc(F)c3)c(C(N)=O)nn2)cn1 [Compound 66] | 100 to 1000 | > 1000 | > 1000 | 10 to 100
CC(=O)N1CCN(c2ccc(Nc3cc(NC4CCCCC4)c(C(N)=O)nn3)cc2)CC1 [Compound 8, 6-((4-(4-acetylpiperazin-1-yl)phenyl)amino)-4-(cyclohexylamino)pyridazine-3-carboxamide] | 100 to 1000 | 100 to 1000 |  | 10 to 100
NC(=O)c1nnc(Nc2ccc(N3CCOCC3)cc2)cc1NCc1c(F)cccc1F [Compound 39] | 10 to 100 | 100 to 1000 |  | 1 to 10
CC(=O)N1CCN(c2ccc(Nc3cc(NCc4cccc(-n5ccnc5)c4)c(C(N)=O)nn3)cc2)CC1 [Compound 68] | > 1000 | > 1000 |  | 10 to 100
NC(=O)c1nnc(Nc2ccc(C(=O)N3CCCC3)cc2)cc1NCc1cccc(F)c1 [Compound 52] | 100 to 1000 | > 1000 |  | 10 to 100
NC(=O)c1nnc(Nc2ccc(C(=O)N3CCCC3)c(Cl)c2)cc1NCc1cccc(F)c1 [Compound 55] | 100 to 1000 | > 1000 |  | 10 to 100
NC(=O)c1nnc(Nc2ccc(N3CCNCC3)nc2)cc1NCc1cccc(F)c1 [Compound 50] | > 1000 | > 1000 |  | 100 to 1000
NC(=O)c1nnc(Nc2cccc(CN3CCOCC3)c2)cc1NCc1cccc(F)c1 [Compound 48] | 100 to 1000 | > 1000 |  | 10 to 100
CC(=O)N1CCN(c2ccc(Nc3cc(NCc4cccc(C)c4)c(C(N)=O)nn3)cc2)CC1 [Compound 47] | 100 to 1000 | > 1000 |  | 10 to 100
CC(=O)N1CCN(c2ccc(Nc3cc(NC4CCCC4)c(C(N)=O)nn3)cc2)CC1 [Compound 10] | 100 to 1000 | 100 to 1000 |  | 100 to 1000
CC(=O)N1CCN(c2ccc(Nc3cc(NCc4cccc(F)c4)c(C(N)=O)nn3)cn2)CC1 [Compound 49] | > 1000 | > 1000 |  | 100 to 1000
NC(=O)c1nnc(Nc2ccc(N3CCOCC3)cc2)cc1NCc1cc(F)cc(F)c1 [Compound 36] | 100 to 1000 | > 1000 |  | 10 to 100
NC(=O)c1nnc(Nc2ccc(OCCN3CCCC3)cc2)cc1NCc1cccc(F)c1 [Compound 51] | 100 to 1000 | > 1000 |  | 10 to 100
CCC(=O)N1CCC(c2ccc(Nc3cc(NCc4cc(F)cc(F)c4)c(C(N)=O)nn3)cc2)CC1 [Compound 27] | > 1000 | > 1000 |  | 10 to 100
Cc1cc(Nc2cc(NCc3cccc(F)c3)c(C(N)=O)nn2)ccc1N1CCOCC1 [Compound 54] | > 1000 | > 1000 |  | 10 to 100
COC(=O)N(C)c1ccc(Nc2cc(NCc3cccc(F)c3F)c(C(N)=O)nn2)cc1 [Compound 45] | > 1000 | > 1000 |  | 10 to 100
CC(=O)Nc1cccc(Nc2cc(NC3CCC3)c(C(N)=O)nn2)c1 [Compound 7, 6-((3-acetamidophenyl)amino)-4-(cyclobutylamino)pyridazine-3-carboxamide] | 100 to 1000 | > 1000 |  | 100 to 1000
CC(=O)N1CCN(c2ccc(Nc3cc(NCC(C)C)c(C(N)=O)nn3)cc2)CC1 [Compound 14] | 100 to 1000 | > 1000 |  | 100 to 1000
